Measurements published in publication PMC6100582 (Molecules : A Journal of Synthetic Chemistry and Natural …, 2018).
In brackets after ≈: the same amount, converted by molar mass. Like-named read-outs stand apart in the source and are kept apart here.

Assays:
[1] = tested on: Mycobacterium marinum CAMP 5644; assay: Antimycobacterial susceptibility assay (MIC determination); format: cell-based; settings: CAMP5644, 504 h
Experimental: The broth dilution micro-method in Middlebrook 7H9 medium (Difco, Lawrence, KS, USA) supplemented with ADC Enrichment (Becton, Dickinson and Comp.) was used to determine MIC as previously described. […] Bacterial inocula were prepared by transferring colonies from culture to sterile water. The cell density was adjusted to 0.5 McFarland units using a densitometer (Densi-La-Meter, LIAP, Riga, Latvia). The final inoculum was made by 1:1000 dilution of the suspension with sterile water. Drug-free controls, sterility controls and controls consisted of medium and DMSO (Sigma-Aldrich, St. Louis, MO, USA) alone were included. […] Ciprofloxacin (CIP), rifampicin (RIF) and isoniazid (INH) (Sigma-Aldrich, St. Louis, MO, USA) were used as the standards.

[2] = tested on: Coxsackie Virus B4; assay: Antiviral activity in Vero cell cultures; format: cell-based; settings: Enterovirus B, B4, Vero cells
[3] = tested on: DND-41 (acute lymphoblastic leukemia); assay: Antiproliferative screening (cytostatic activity); format: cell-based, human; settings: 72 h, IncuCyte imaging, read-out: IC50 DND-41
Experimental: (§1) Cytostatic activity was evaluated in vitro on nine different types of human tumor cell lines: Capan-1, Hap1, HCT-116, and NCI-H460, as well as hematological tumors such as DND-41, HL-60, K-562, MM.1S and Z-138 as described previously. All human tumor cell lines were acquired from the American Type Culture Collection (ATCC, Manassas, VA, USA), except for the DND-41 cell line which was purchased from the Deutsche Sammlung von Mikroorganismen und Zellkulturen (DSMZ Leibniz-Institut, Braunschweig, Germany) and the Hap1 cell line which was purchased from Horizon Discovery (Waterbeach, UK). Capan-1, Hap1, HL-60, K-562, Z-138, MM.1S and DND-41 were cultured in Iscove′s Modified Dulbecco′s Medium (IMDM, Gibco Life Technologies, Gaithersburg, MD, USA), HCT-116 were grown in McCoy′s 5A Medium (Gibco Life Technologies) and NCI-H460 were cultured in RPMI (Gibco Life Technologies). All media were supplemented with 10% FBS (HyClone, GE Healthcare Life Sciences, USA). Adherent cell lines HCT-116, Hap1, NCI-H460, and Capan-1 cells were seeded at a density between 400 and 1250 cells per well, in 384-well, black-walled, clear-bottomed tissue culture plates (Greiner Bio-One, Kremsmünster, Germany). After overnight incubation, cells were treated with test compounds at four different concentrations ranging from 100 to 0.8 µM. Suspension cell lines HL-60, K-562, Z-138, MM.1S, and DND-41 were seeded at densities ranging from 3000 to 10,000 cells per well in 384-well, black-walled, clear-bottomed tissue culture plates containing test compounds at the same four concentrations. The plates were incubated and monitored at 37 °C for 72 h in an IncuCyte (Essen BioScience Inc., Ann Arbor, MI, USA) for real-time imaging. Images were taken every 3 h, with one field image per well under 10× magnification. All compounds were tested with duplicate data points and averaged. […]

[4] = tested on: Yellow Fever Virus; assay: microbe, parasite or virus in culture; format: cell-based; settings: Vero
[5] = tested on: Hap1 (chronic myeloid leukemia); assay: Antiproliferative screening (cytostatic activity); format: cell-based; settings: Homo sapiens, HAP1; 72 h, IncuCyte imaging; read-out: IC50 Hap1
Experimental: as §1

[6] = tested on: HL-60 (acute myeloid leukemia); assay: Antiproliferative screening (cytostatic activity); format: cell-based; settings: Homo sapiens, HL-60; 72 h, IncuCyte imaging; read-out: IC50 HL-60
Experimental: as §1

[7] = tested on: Streptococcus pneumoniae MFBF 10373; assay: Antimicrobial susceptibility assay in vitro (MIC determination); format: cell-based; settings: MFBF10373, serial microdilution, 18 h, 35 °C
Experimental: (§2) Stock solutions of the tested compounds were prepared in DMSO (10 mg/mL). […] The absorbance was recorded at 540 nm. As a positive quality control (susceptibility of strains) tetracycline hydrochloride (TC) (Sigma-Aldrich) was added into wells.

[8] = tested on: Bacillus subtilis ATCC 6633; assay: as above; format: cell-based; settings: ATCC6633, serial microdilution, 18 h, 35 °C
Experimental: as §2

[9] = tested on: Bacillus cereus ATCC 11778; assay: as above; format: cell-based; settings: ATCC11778, serial microdilution, 18 h, 35 °C
Experimental: as §2

[10] = tested on: Acinetobacter baumannii MFBF 10913; assay: as above; format: cell-based; settings: MFBF10913, serial microdilution, 18 h, 35 °C
Experimental: as §2

[11] = tested on: Staphylococcus aureus ATCC 6538; assay: as above; format: cell-based; settings: ATCC6538
[12] = tested on: Para-Influenza-3 Virus; assay: organism not typed; format: cell-based; settings: Vero cells
[13] = tested on: Reovirus-1; assay: Antiviral activity in Vero cell cultures; format: cell-based; settings: Vero cells
[14] = tested on: Mycobacterium tuberculosis H37Ra; assay: Antimycobacterial susceptibility assay (MIC determination); format: cell-based; settings: 168 h, 7 days, 37 °C, alamarBlue
Experimental: At log phase growth, a culture sample (10 mL) was centrifuged at 15,000 rpm/20 min using a bench-top centrifuge (MPW-65R, MPW Med Instruments, Poland). Following removal of the supernatant, the pellet was washed in fresh Middlebrook 7H9GC broth and re-suspended in fresh, ODAC-supplemented MB (10 mL). The turbidity was adjusted to match McFarland standard No. 1 (3 × 10^8 CFU) with MB broth. A further 1:20 dilution of the culture was then performed in MB broth. The antimicrobial susceptibility of M. tuberculosis was investigated in a 96-well plate format. In these experiments, sterile deionised water (300 µl) was added to all outer-perimeter wells of the plates to minimize evaporation of the medium in the test wells during incubation. Each evaluated compound (100 µL) was incubated with M. tuberculosis (100 µl). Dilutions of each compound were prepared in duplicate. For all synthesized compounds, final concentrations ranged from 1000 μg/mL to 8 μg/mL. All compounds were dissolved in DMSO, and subsequent dilutions were made in supplemented MB. […] Following incubation, 10% of alamarBlue (Difco, Lawrence, KS, USA) was mixed into each well, and readings at 570 nm and 600 nm were taken, initially for background subtraction and subsequently after 24 h reincubation. […] For non-interfering compounds, a blue colour in the well was interpreted as the absence of growth, and a pink colour was scored as growth.

[15] = tested on: Enterococcus faecalis ATCC 29212; assay: Antimicrobial susceptibility assay in vitro (MIC determination); format: cell-based
[16] = Mycobacterium marinum CAMP 5644, 21 days, 28 °C, read-out: MIC
[17] = MTS, read-out: EC50 Coxsackie Virus B4, MTS
[18] = read-out: EC50 Yellow Fever Virus, MTS
[19] = MTS, read-out: EC50 Para-Influenza-3 Virus, MTS
[20] = MTS, read-out: EC50 Reovirus-1, MTS
[21] = Enterococcus faecalis, ATCC29212, 24 h
[22] = visual CPE score, read-out: EC50 Coxsackie Virus B4, Visual CPE Score
[23] = read-out: EC50 Yellow Fever Virus, Visual CPE Score
[24] = visual CPE score, read-out: EC50 Para-Influenza-3 Virus, Visual CPE Score
[25] = visual CPE score, read-out: EC50 Reovirus-1, Visual CPE Score
[26] = ATCC29212, Enterococcus faecalis ATCC 29212, broth dilution, 24 h, 37 °C, read-out: MIC

Compound	MIC [1, 16]	EC50 [2, 17]	IC50 ([3]; Homo sapiens, DND41, 72 h)	EC50 [4, 18]	IC50 [5]	IC50 [6]	MIC [7]	MIC [8]	MIC [9]	MIC [10]	MIC [11]	EC50 [12, 19]	EC50 [13, 20]	MIC [14]	MIC [15, 21]	EC50 [2, 22]	EC50 [4, 23]	EC50 [12, 24]	EC50 [13, 25]	MIC [15, 26]	also measured
COc1cc(NC(C)CCCNC(=O)/C=C/C(=O)Nc2cccc(F)c2)c2ncccc2c1 (centres unmarked) [Compound 4a, (2E)-N-(3-Fluorophenyl)-N′-{4-[(6-methoxyquinolin-8-yl)amino]pentyl}but-2-enediamide]	> 256 µg/mL	> 50 µM	6.7 µM	> 50 µM	19.3 µM	5.7 µM	> 100 µg/mL	50 µg/mL (≈ 111 µM)	> 100 µg/mL	> 100 µg/mL	> 100 µg/mL	> 50 µM	> 50 µM	128 µg/mL (≈ 284 µM)	128 µg/mL (≈ 284 µM)	–	–	–	–	–	–
COc1cc(NC(C)CCCNC(=O)/C=C/C(=O)Nc2cccc(Cl)c2)c2ncccc2c1 (centres unmarked) [Compound 4c, (2E)-N-(3-Chlorophenyl)-N′-{4-[(6-methoxyquinolin-8-yl)amino]pentyl}but-2-enediamide]	–	> 50 µM	8.4 µM	> 50 µM	> 100 µM	> 100 µM	25 µg/mL (≈ 53.5 µM)	50 µg/mL (≈ 107 µM)	25 µg/mL (≈ 53.5 µM)	25 µg/mL (≈ 53.5 µM)	12.5 µg/mL (≈ 26.8 µM)	> 50 µM	3.8 µM	128 µg/mL (≈ 274 µM)	–	> 50 µM	> 50 µM	> 50 µM	> 50 µM	256 µg/mL (≈ 548 µM)	MIC ([1]; Mycobacterium marinum): 128 µg/mL (≈ 274 µM)
COc1cc(NC(C)CCCNC(=O)/C=C/C(=O)Nc2ccc(C(F)(F)F)cc2)c2ncccc2c1 (centres unmarked) [Compound 4f, (2E)-N′-{4-[(6-Methoxyquinolin-8-yl)amino]pentyl}-N-[4-(trifluoromethyl)phenyl]but-2-enediamide]	64 µg/mL (≈ 128 µM)	> 50 µM	–	> 50 µM	> 100 µM	> 100 µM	50 µg/mL (≈ 99.9 µM)	> 100 µg/mL	> 100 µg/mL	25 µg/mL (≈ 49.9 µM)	50 µg/mL (≈ 99.9 µM)	> 50 µM	> 50 µM	64 µg/mL (≈ 128 µM)	–	–	–	–	–	64 µg/mL (≈ 128 µM)	IC50 [3]: > 100 µM
COc1cc(NC(C)CCCNC(=O)/C=C/C(=O)Nc2cccc(C(F)(F)F)c2)c2ncccc2c1 (centres unmarked) [Compound 4e, (2E)-N′-{4-[(6-Methoxyquinolin-8-yl)amino]pentyl}-N-[3-(trifluoromethyl)phenyl]but-2-enediamide]	256 µg/mL (≈ 511 µM)	3.1 µM	8.9 µM	> 50 µM	> 100 µM	> 100 µM	50 µg/mL (≈ 99.9 µM)	> 100 µg/mL	> 100 µg/mL	25 µg/mL (≈ 49.9 µM)	50 µg/mL (≈ 99.9 µM)	> 50 µM	3.1 µM	128 µg/mL (≈ 256 µM)	128 µg/mL (≈ 256 µM)	2.7 µM	> 50 µM	> 50 µM	> 50 µM	–	–
COc1cc(NC(C)CCCNC(=O)/C=C/C(=O)Nc2ccc(F)cc2)c2ncccc2c1 (centres unmarked) [Compound 4b, (2E)-N-(4-Fluorophenyl)-N′-{4-[(6-methoxyquinolin-8-yl)amino]pentyl}but-2-enediamide]	64 µg/mL (≈ 142 µM)	> 50 µM	> 100 µM	> 50 µM	66.4 µM	> 100 µM	12.5 µg/mL (≈ 27.7 µM)	25 µg/mL (≈ 55.5 µM)	25 µg/mL (≈ 55.5 µM)	25 µg/mL (≈ 55.5 µM)	12.5 µg/mL (≈ 27.7 µM)	> 50 µM	> 50 µM	32 µg/mL (≈ 71 µM)	–	–	–	–	–	64 µg/mL (≈ 142 µM)	–
COc1cc(NC(C)CCCNC(=O)/C=C/C(=O)Nc2ccc(Cl)cc2)c2ncccc2c1 (centres unmarked) [Compound 4d, (2E)-N-(4-Chlorophenyl)-N′-{4-[(6-methoxyquinolin-8-yl)amino]pentyl}but-2-enediamide]	64 µg/mL (≈ 137 µM)	> 50 µM	> 100 µM	> 50 µM	> 100 µM	> 100 µM	12.5 µg/mL (≈ 26.8 µM)	> 100 µg/mL	> 100 µg/mL	12.5 µg/mL (≈ 26.8 µM)	6.1 µg/mL (≈ 13.1 µM)	> 50 µM	> 50 µM	128 µg/mL (≈ 274 µM)	–	–	–	–	–	64 µg/mL (≈ 137 µM)	–
